This is an account of results in ChEMBL document CHEMBL1134076, “5,5-Diaryl-2-amino-4-pentenoates as novel, potent, and selective glycine transporter type-2 reuptake inhibitors” (Bioorg Med Chem Lett, 2001).

Bounds are passed on as bounds.

One test addresses T1, Sodium- and chloride-dependent glycine transporter 2 (Rattus norvegicus, UniProt P58295).
T1 sequence (P58295 whole entry): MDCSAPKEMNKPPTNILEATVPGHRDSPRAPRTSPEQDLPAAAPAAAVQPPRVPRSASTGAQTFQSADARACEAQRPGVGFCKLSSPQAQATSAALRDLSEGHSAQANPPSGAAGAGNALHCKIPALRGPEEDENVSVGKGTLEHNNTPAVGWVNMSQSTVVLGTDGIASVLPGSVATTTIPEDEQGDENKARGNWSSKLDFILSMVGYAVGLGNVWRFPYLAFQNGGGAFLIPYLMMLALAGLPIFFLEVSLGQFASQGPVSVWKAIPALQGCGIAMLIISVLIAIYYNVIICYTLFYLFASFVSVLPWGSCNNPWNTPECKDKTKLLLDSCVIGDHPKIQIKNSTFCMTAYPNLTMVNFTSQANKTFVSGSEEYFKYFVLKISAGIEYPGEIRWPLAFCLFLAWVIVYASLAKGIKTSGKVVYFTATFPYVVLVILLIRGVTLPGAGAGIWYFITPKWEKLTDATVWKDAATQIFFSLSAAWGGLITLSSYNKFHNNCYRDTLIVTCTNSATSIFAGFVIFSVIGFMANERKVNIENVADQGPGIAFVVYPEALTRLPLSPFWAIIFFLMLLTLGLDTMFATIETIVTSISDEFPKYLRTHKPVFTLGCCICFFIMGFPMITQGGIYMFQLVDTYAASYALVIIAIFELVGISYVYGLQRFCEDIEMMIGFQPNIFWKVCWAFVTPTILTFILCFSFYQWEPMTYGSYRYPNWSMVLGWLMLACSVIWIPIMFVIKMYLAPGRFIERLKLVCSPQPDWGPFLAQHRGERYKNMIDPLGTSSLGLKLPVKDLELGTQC
The test is described as follows: In vitro glycine reuptake inhibitory activity against glycine transporter type-2 (GlyT-2) transporter cells after incubation at 37 degrees for 30 min in presence of 50 nM [3H]glycine.
The IC50 is the concentration at which inhibition is half-maximal. `NC(C/C=C(\c1cccnc1)c1ccc(F)cc1F)C(=O)O` (stereo not given): the IC50 is greater than 10 µM.

`NC(C/C=C(/c1ccc(-c2ccccc2)cc1)c1ccc(F)cc1F)C(=O)O` (stereo not given): the IC50 came to 2.4 µM.

For `NC(C/C=C(\c1cccc(-c2ccccc2)c1)c1ccc(F)cc1F)C(=O)O` (stereo not given), the IC50 came out at 1.34 µM.

In the case of `NC(C/C=C(\c1ccsc1)c1ccc(F)cc1F)C(=O)O` (stereo not given), the IC50 amounted to 5.88 µM.

`CC(C)c1ccc(/C(=C\CC(N)C(=O)O)c2ccc(-c3ccccc3)cc2)cc1` (stereo not given): the IC50 came out at 2.06 µM.

In the case of `CC(C)c1ccc(C(=CCC(N)C(=O)O)c2ccc(C(C)C)cc2)cc1` (stereo not given), the IC50 stood at 2.03 µM.

As to `CC(C)(C)c1ccc(/C(=C\CC(N)C(=O)O)c2ccc(F)cc2F)cc1` (stereo not given), the IC50 stood at 1.74 µM.

As to `CC(C)c1ccc(/C(=C\CC(N)C(=O)O)c2ccsc2)cc1` (stereo not given), the IC50 was determined as 1.03 µM.

As to `CC(C)c1cccc(/C(=C\CC(N)C(=O)O)c2ccc(F)cc2F)c1` (stereo not given), the IC50 was 1.59 µM.

Consider `CC(C)c1ccc(/C(=C\CC(N)C(=O)O)c2ccc(C#N)cc2)cc1` (stereo not given), for which the IC50 was determined as 2.64 µM.

As for `CC(C)c1ccc(/C(=C\CC(N)C(=O)O)c2cccnc2)cc1` (stereo not given), the IC50 was found to be 5.93 µM.

On to `NC(C/C=C(\c1ccc2ccccc2c1)c1ccc(F)cc1F)C(=O)O` (stereo not given), for which the IC50 is 0.77 µM.

With `CC(C)c1ccc(/C(=C\C[C@H](N)C(=O)O)c2ccc(F)cc2F)cc1`, the IC50 worked out at 0.15 µM.

For the compound `CCc1ccc(/C(=C\CC(N)C(=O)O)c2ccc(F)cc2F)cc1` (stereo not given), the IC50 came out at 0.46 µM.

For `CC(C)c1ccc(/C(=C\CC(N)C(=O)O)c2ccc(C(C)(C)C)cc2)cc1` (stereo not given), the IC50 was found to be 5.47 µM.

As for `CC(C)c1ccc(/C(=C\CC(N)C(=O)O)c2ccc(F)cc2F)cc1` (stereo not given), the IC50 is 0.33 µM.

As for `N#Cc1ccc(/C(=C\CC(N)C(=O)O)c2ccc(F)cc2F)cc1` (stereo not given), the IC50 was greater than 10 µM.

On to `NC(C/C=C(/c1ccc(F)cc1F)c1ccccc1-c1ccccc1)C(=O)O` (stereo not given), for which the IC50 came out at 2.75 µM.

For `Cc1ccc(/C(=C\CC(N)C(=O)O)c2ccc(F)cc2F)cc1` (stereo not given), the IC50 was determined as 1.17 µM.

`CC(C)c1ccc(/C(=C\CC(N)C(=O)O)c2ccccc2F)cc1` (stereo not given): the IC50 was found to be 0.29 µM.

Turning to `NC(C/C=C(\c1ccccc1)c1ccc(F)cc1F)C(=O)O` (stereo not given), the 50% inhibitory concentration (IC50) was found to be 6.44 µM.

Regarding `COc1ccc(/C(=C\CC(N)C(=O)O)c2ccc(F)cc2F)cc1` (stereo not given), the IC50 is 2.03 µM.

As for `NC(C/C=C(\c1ccc(-c2ccccc2)cc1)c1ccc(F)cc1F)C(=O)O` (stereo not given), the IC50 amounted to 3.66 µM.

In the case of `CCc1ccc(/C(=C\C[C@H](N)C(=O)O)c2ccc(F)cc2F)cc1CC`, the IC50 worked out at 0.283 µM.

With `CC(C)c1ccc(/C(=C\CC(N)C(=O)O)c2ccccc2)cc1` (stereo not given), the IC50 came out at 0.4 µM.

On to `COc1ccc(/C(=C/CC(N)C(=O)O)c2ccc(C(C)C)cc2)cc1` (stereo not given), for which the IC50 was 1.16 µM.

`N[C@@H](C/C=C(\c1ccc2ccccc2c1)c1ccc(F)cc1F)C(=O)O`: the IC50 was 0.365 µM.

As to `CC(C)c1ccc(/C(=C/CC(N)C(=O)O)c2ccc(F)cc2F)cc1` (stereo not given), the half-maximal inhibitory concentration (IC50) was greater than 10 µM.

For the compound `CCc1ccc(/C(=C\CC(N)C(=O)O)c2ccc(F)cc2F)cc1CC` (stereo not given), the IC50 is 0.66 µM.

For a further test, the target named is T2, Sodium- and chloride-dependent glycine transporter 1 (Rattus norvegicus, UniProt P28572).
T2 sequence (P28572 whole entry): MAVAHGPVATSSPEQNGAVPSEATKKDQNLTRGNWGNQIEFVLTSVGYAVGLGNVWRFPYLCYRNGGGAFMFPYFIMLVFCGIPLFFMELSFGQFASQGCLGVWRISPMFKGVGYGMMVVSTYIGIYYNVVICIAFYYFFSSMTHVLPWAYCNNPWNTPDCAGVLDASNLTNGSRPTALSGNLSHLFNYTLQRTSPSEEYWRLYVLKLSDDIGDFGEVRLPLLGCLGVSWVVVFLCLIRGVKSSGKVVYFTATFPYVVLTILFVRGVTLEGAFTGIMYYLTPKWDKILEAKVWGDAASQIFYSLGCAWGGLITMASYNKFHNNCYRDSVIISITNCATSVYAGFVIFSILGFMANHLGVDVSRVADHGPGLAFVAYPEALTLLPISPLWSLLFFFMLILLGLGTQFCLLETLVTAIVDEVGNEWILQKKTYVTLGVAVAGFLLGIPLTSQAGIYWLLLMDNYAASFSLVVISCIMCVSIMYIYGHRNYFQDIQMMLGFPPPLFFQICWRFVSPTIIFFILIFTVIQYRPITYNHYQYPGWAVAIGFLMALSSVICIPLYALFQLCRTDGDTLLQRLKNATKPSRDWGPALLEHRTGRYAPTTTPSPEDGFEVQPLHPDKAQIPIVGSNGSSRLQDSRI
The test is described as follows: In vitro glycine reuptake inhibitory activity against glycine transporter type-1 isoform C (GlyT-1c) transporter cells after incubation at 37 degrees for 30 min in presence of 50 nM [3H]glycine.
In the case of `NC(C/C=C(\c1cccnc1)c1ccc(F)cc1F)C(=O)O` (stereo not given), the IC50 is greater than 10 µM.

Regarding `NC(C/C=C(/c1ccc(-c2ccccc2)cc1)c1ccc(F)cc1F)C(=O)O` (stereo not given), the IC50 was found to be 3.4 µM.

Regarding `NC(C/C=C(\c1cccc(-c2ccccc2)c1)c1ccc(F)cc1F)C(=O)O` (stereo not given), the IC50 was greater than 10 µM.

`NC(C/C=C(\c1ccsc1)c1ccc(F)cc1F)C(=O)O` (stereo not given): the IC50 was greater than 10 µM.

Consider `CC(C)c1ccc(/C(=C\CC(N)C(=O)O)c2ccc(-c3ccccc3)cc2)cc1` (stereo not given), for which the 50% inhibitory concentration (IC50) is greater than 10 µM.

For `CC(C)c1ccc(C(=CCC(N)C(=O)O)c2ccc(C(C)C)cc2)cc1` (stereo not given), the IC50 was greater than 10 µM.

Regarding `CC(C)(C)c1ccc(/C(=C\CC(N)C(=O)O)c2ccc(F)cc2F)cc1` (stereo not given), the IC50 was greater than 10 µM.

For `CC(C)c1ccc(/C(=C\CC(N)C(=O)O)c2ccsc2)cc1` (stereo not given), the IC50 came to 5.77 µM.

Take `CC(C)c1cccc(/C(=C\CC(N)C(=O)O)c2ccc(F)cc2F)c1` (stereo not given): the IC50 is greater than 10 µM.

Consider `CC(C)c1ccc(/C(=C\CC(N)C(=O)O)c2ccc(C#N)cc2)cc1` (stereo not given), for which the IC50 is greater than 10 µM.

Consider `CC(C)c1ccc(/C(=C\CC(N)C(=O)O)c2cccnc2)cc1` (stereo not given), for which the IC50 amounted to 6.48 µM.

Regarding `NC(C/C=C(\c1ccc2ccccc2c1)c1ccc(F)cc1F)C(=O)O` (stereo not given), the IC50 was greater than 10 µM.

For the compound `CCc1ccc(/C(=C\CC(N)C(=O)O)c2ccc(F)cc2F)cc1` (stereo not given), the IC50 is greater than 10 µM.

Consider `CC(C)c1ccc(/C(=C\CC(N)C(=O)O)c2ccc(C(C)(C)C)cc2)cc1` (stereo not given), for which the IC50 was greater than 10 µM.

Consider `CC(C)c1ccc(/C(=C\CC(N)C(=O)O)c2ccc(F)cc2F)cc1` (stereo not given), for which the IC50 is greater than 10 µM.

For the compound `N#Cc1ccc(/C(=C\CC(N)C(=O)O)c2ccc(F)cc2F)cc1` (stereo not given), the IC50 was greater than 10 µM.

Turning to `NC(C/C=C(/c1ccc(F)cc1F)c1ccccc1-c1ccccc1)C(=O)O` (stereo not given), the IC50 was 8.92 µM.

As to `Cc1ccc(/C(=C\CC(N)C(=O)O)c2ccc(F)cc2F)cc1` (stereo not given), the IC50 amounted to 9.56 µM.

Consider `CC(C)c1ccc(/C(=C\CC(N)C(=O)O)c2ccccc2F)cc1` (stereo not given), for which the IC50 amounted to 8.02 µM.

As for `NC(C/C=C(\c1ccccc1)c1ccc(F)cc1F)C(=O)O` (stereo not given), the IC50 came to 9.5 µM.

In the case of `COc1ccc(/C(=C\CC(N)C(=O)O)c2ccc(F)cc2F)cc1` (stereo not given), the IC50 was greater than 10 µM.

As for `NC(C/C=C(\c1ccc(-c2ccccc2)cc1)c1ccc(F)cc1F)C(=O)O` (stereo not given), the IC50 is greater than 10 µM.

`CC(C)c1ccc(/C(=C\CC(N)C(=O)O)c2ccccc2)cc1` (stereo not given): the IC50 is 8.34 µM.

Regarding `COc1ccc(/C(=C/CC(N)C(=O)O)c2ccc(C(C)C)cc2)cc1` (stereo not given), the IC50 is greater than 10 µM.

For `CC(C)c1ccc(/C(=C/CC(N)C(=O)O)c2ccc(F)cc2F)cc1` (stereo not given), the IC50 is greater than 10 µM.

Take `CCc1ccc(/C(=C\CC(N)C(=O)O)c2ccc(F)cc2F)cc1CC` (stereo not given): the IC50 is greater than 10 µM.
